US8853208B2, “Amino alcohol-substituted arylthienopyrimidinones, process for their preparation and their use as medicaments” (Sanofi, priority 2006, dated 2014)

target: T1, human MCH receptor (Homo sapiens, UniProt Q99705); assay: Functional IC50 of MCH1R antagonists: cellular calcium flux (FLIPR) after MCH in recombinant HEK293 cells; assay type: cell-based; conditions: calcium flux after addition of agonist (MCH), recombinant HEK293 cell line expressing the human MCH receptor
T1 construct: expressed in transfected cells
Description: Influence on the MCH receptor in vitro; determination of functional IC50 values of MCH1R antagonists
Cloning of the cDNA for the human MCH receptor, preparation of a recombinant HEK293 cell line which expresses the human MCH receptor, and functional measurements with the recombinant cell line took place in analogy to the description by Audinot et al. (J. Biol. Chem. 276, 13554-13562, 2001). A difference from the reference was, however, the use of the plasmid pEAK8 from EDGE Biosystems (USA) for the construction of the expression vector. The host used for the transfection was a transformed HEK cell line named “PEAK Stable Cells” (likewise from EDGE Biosystems). Functional measurements of the cellular calcium flux after addition of agonist (MCH) in the presence of ligand of the invention took place with the aid of the FLIPR apparatus from Molecular Devices (USA), using protocols of the apparatus manufacturer. The compounds of the invention show a significant inhibition (>30%) of the signal induced by the agonist at a concentration of 100 μM, preferably at 10 μM, particularly preferably at 1 μM, very particularly preferably at 100 nM and even more particularly preferably at 10 nM. Besides the functional activity it is also possible to determine the affinity for the MCH1R according to Audinot et al. (Br. J. Pharmacol. 2001, 133, 371-378).

T1 sequence (Q99705 whole entry): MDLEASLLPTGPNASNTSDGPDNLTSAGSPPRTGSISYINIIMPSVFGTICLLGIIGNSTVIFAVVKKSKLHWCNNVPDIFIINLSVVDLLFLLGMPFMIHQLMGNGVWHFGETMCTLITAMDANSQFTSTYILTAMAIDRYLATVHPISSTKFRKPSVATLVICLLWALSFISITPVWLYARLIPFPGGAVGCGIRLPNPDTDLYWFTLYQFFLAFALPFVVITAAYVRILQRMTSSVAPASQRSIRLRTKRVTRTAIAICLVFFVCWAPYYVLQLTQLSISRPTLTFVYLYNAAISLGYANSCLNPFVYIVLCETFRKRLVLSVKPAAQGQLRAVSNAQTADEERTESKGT

| SMILES | IC50 |
| --- | --- |
| CCCCC(O)c1cc2ncn(-c3ccc(O[C@H]4C[C@H]5CC[C@@H](C4)N5C)cc3)c(=O)c2s1 (some centres unmarked) [Example 127] | 1000 nM |
| CN1[C@@H]2CC[C@H]1C[C@@H](Oc1ccc(-n3cnc4cc(CC(O)c5ccco5)sc4c3=O)cc1)C2 (some centres unmarked) [Example 169] | 290 nM |
| COC(C)(C)C#Cc1cc2ncn(-c3ccc(O[C@H]4C[C@H]5CC[C@@H](C4)N5C)cc3)c(=O)c2s1 [Example 56] | 840 nM |
| CN1[C@@H]2CC[C@H]1CC(Oc1ccc(-n3cnc4cc(N5C[C@H]6CCCN6C5=O)sc4c3=O)cc1)C2 (some centres unmarked) [Example 77] | 9650 nM |
| CN1[C@@H]2CC[C@H]1C[C@@H](Oc1ccc(-n3cnc4cc(C(O)CC(C)(C)C)sc4c3=O)cc1)C2 (some centres unmarked) [Example 135] | 2250 nM |
| CN1[C@@H]2CC[C@H]1C[C@@H](Oc1ccc(-n3cnc4cc(CC(O)C5CCC5)sc4c3=O)cc1)C2 (some centres unmarked) [Example 166] | 1090 nM |
| CN1[C@@H]2CC[C@H]1C[C@@H](Oc1ccc(-n3cnc4cc(C(O)C5CCCC5)sc4c3=O)cc1)C2 (stereo partly drawn) [Example 121, 6-(Cyclopentylhydroxymethyl)-3-[4-((1S,3R,5R)-8-methyl-8-azabicyclo[3.2.1]oct-3-yloxy)phenyl]-3H-thieno[3,2-d]pyrimidin-4-one] | 750 nM |
| CN1[C@@H]2CC[C@H]1C[C@@H](Oc1ccc(-n3cnc4cc(CCC5CC5)sc4c3=O)cc1)C2 [Example 7] | 940 nM |
| CCC(O)CCc1cc2ncn(-c3ccc(O[C@H]4C[C@H]5CC[C@@H](C4)N5C)c(C)c3)c(=O)c2s1 (some centres unmarked) [Example 27] | 140 nM |
| CN1[C@@H]2CC[C@H]1C[C@@H](Oc1ccc(-n3cnc4cc(C#CC5CC5)sc4c3=O)cc1)C2 [Example 62] | 100 nM |
| CN1[C@@H]2CC[C@H]1C[C@@H](Oc1ccc(-n3cnc4cc(CCc5ccco5)sc4c3=O)cc1)C2 [Example 171, 6-(2-Furan-2-ylethyl)-3-[4-((1S,3R,5R)-8-methyl-8-azabicyclo[3.2.1]oct-3-yloxy)phenyl]-3H-thieno[3,2-d]pyrimidin-4-one] | 210 nM |
| COCCCc1cc2ncn(-c3ccc(O[C@H]4C[C@H]5CC[C@@H](C4)N5C)c(C)c3)c(=O)c2s1 [Example 22] | 400 nM |
| CN1[C@@H]2CC[C@H]1CC(Oc1ccc(-n3cnc4cc(C5=CCOCC5)sc4c3=O)cc1)C2 (some centres unmarked) [Example 142] | 2590 nM |
| CN(C)CCOc1ccc(-n2cnc3cc(COCC4CCC4)sc3c2=O)cc1 [Example 93, 6-Cyclobutylmethoxymethyl-3-[4 (2-dimethylaminoethoxy)phenyl]-3H-thieno[3,2-d]pyrimidin-4-one] | 930 nM |
| COc1cc(-n2cnc3cc(C#CC(C)O)sc3c2=O)ccc1O[C@H]1C[C@H]2CC[C@@H](C1)N2C (some centres unmarked) [Example 58] | 340 nM |
| O=c1c2sc(C#CC3CC3)cc2ncn1-c1ccc(OCCN2CCCC2)c(F)c1 [Example 69] | 200 nM |
| CCC(C)(O)CCc1cc2ncn(-c3ccc(O[C@H]4C[C@H]5CC[C@@H](C4)N5C)c(Cl)c3)c(=O)c2s1 (some centres unmarked) [Example 20] | 1030 nM |
| CCC(O)C#Cc1cc2ncn(-c3ccc(OC4C[C@H]5CC[C@@H](C4)N5C)c(CCC(O)CC)c3)c(=O)c2s1 (some centres unmarked) [Example 178] | 1270 nM |
| CC(O)C#Cc1cc2ncn(-c3ccc(O[C@H]4C[C@H]5CC[C@@H](C4)N5C)cc3)c(=O)c2s1 (some centres unmarked) [Example 50] | 240 nM |
| CCC(O)CCc1cc2ncn(-c3ccc(OC4C[C@H]5CC[C@@H](C4)N5C)c(CCCO)c3)c(=O)c2s1 (some centres unmarked) [Example 190] | 1350 nM |
| CC(C)N(C)C(=O)c1cc2ncn(-c3ccc(O[C@H]4C[C@H]5CC[C@@H](C4)N5C)cc3)c(=O)c2s1 [Example 82] | 6880 nM |
| COc1cc(-n2cnc3cc(C#CC4CC4)sc3c2=O)ccc1OCCN1CCCC1 [Example 42, 6-Cyclopropylethynyl-3-[3-methoxy-4-(2-pyrrolidin-1-ylethoxy)phenyl]-3H-thieno[3,2-d]-pyrimidin-4-one] | 110 nM |
| COCCCc1cc2ncn(-c3ccc(O[C@H]4C[C@H]5CC[C@@H](C4)N5C)c(Cl)c3)c(=O)c2s1 [Example 23] | 530 nM |
| CN1[C@@H]2CC[C@H]1C[C@@H](Oc1ccc(-n3cnc4cc(CCC5(O)CCCC5)sc4c3=O)cc1)C2 [Example 11, 6-[2-(1-Hydroxycyclopentyl)ethyl]-3-[4-((1R,3R,5S)-8-methyl-8-azabicyclo[3.2.1]oct-3-yloxy)phenyl]-3H-thieno[3,2-d]pyrimidin-4-one] | 1290 nM |
| CCc1cc(-n2cnc3cc(C#CC(O)CC)sc3c2=O)ccc1O[C@H]1C[C@H]2CC[C@@H](C1)N2C (some centres unmarked) [Example 181] | 210 nM |
| CS(=O)(=O)CCN1[C@@H]2CC[C@H]1C[C@@H](Oc1ccc(-n3cnc4cc(C#CC5CC5)sc4c3=O)cc1)C2 [Example 63] | 560 nM |
| Cc1cc(-n2cnc3cc(C#CC(C)O)sc3c2=O)ccc1O[C@H]1C[C@H]2CC[C@@H](C1)N2C (some centres unmarked) [Example 57] | 120 nM |
| CCCCC(=O)c1cc2ncn(-c3ccc(O[C@H]4C[C@H]5CC[C@@H](C4)N5C)cc3)c(=O)c2s1 [Example 114] | 1860 nM |
| CN1[C@@H]2CC[C@H]1C[C@@H](Oc1ccc(-n3cnc4cc(C(=O)N5CCCCC5)sc4c3=O)cc1)C2 [Example 84] | 13000 nM |
